Key:
[1] = target: FER (Homo sapiens, UniProt P16591); assay: Tyrosine kinase inhibition assay; format: biochemical; details: for inhibition at 1 µM: single concentration 1.0 μM, read-out: percent inhibition
Experimental: (§1) Tyrosine kinase inhibition assays were performed at ThermoFisher Life Technologies (Madison, WI, USA) using standard protocols (SelectScreen Biochemical Profiling Service, Thermo Fisher Scientific). ATP concentrations used were at the apparent Km. Test compounds were screened in 1% dimethylsulffoxide (DMSO) (final concentration) in the well. For 10-point titrations, 3-fold serial dilutions were conducted from the starting concentration of […]. All Peptide/Kinase Mixtures were diluted to a 2× working concentration in the appropriate Kinase Buffer. All ATP Solutions were diluted to a 4× working concentration in Kinase Buffer (50 mM HEPES pH 7.5, 0.01% BRIJ-35, 10 mM MgCl2, 1 mM EGTA). The apparent ATP Km was previously determined using a Z′-LYTE assay. The Development Reagent was diluted in Development Buffer.
(§2) The inhibition activities of compounds were determined in biochemical assays using single concentration (1.0 μM) measurements. The results were provided as percent inhibition values. A compound displaying a percent inhibition value of greater 80% was defined as a hit. 99 different tyrosine kinases were used.

[2] = target: LYN A (Homo sapiens, UniProt P07948); assay: Tyrosine kinase inhibition assay; format: biochemical; details: for inhibition at 1 µM: single concentration 1.0 μM, read-out: percent inhibition
Experimental: as §1, §2

[3] = target: EPHA2 (Homo sapiens, UniProt P29317); assay: Tyrosine kinase inhibition assay; format: biochemical; details: for inhibition at 1 µM: single concentration 1.0 μM, read-out: percent inhibition
Experimental: as §1, §2

[4] = target: ROS1 (Homo sapiens, UniProt P08922); assay: Tyrosine kinase inhibition assay; format: biochemical; details: for inhibition at 1 µM: single concentration 1.0 μM, read-out: percent inhibition
Experimental: as §1, §2

[5] = target: NTRK2 (TRKB) (Homo sapiens, UniProt Q16620); assay: Tyrosine kinase inhibition assay; format: biochemical; details: NTRK2 (TRKB); for inhibition at 1 µM: single concentration 1.0 μM, read-out: percent inhibition
Experimental: as §1, §2

[6] = target: INSRR (IRR) (Homo sapiens, UniProt P14616); assay: Tyrosine kinase inhibition assay; format: biochemical; details: for inhibition at 1 µM: single concentration 1.0 μM, read-out: percent inhibition
Experimental: as §1, §2

[7] = target: BTK (Homo sapiens, UniProt Q06187); assay: Tyrosine kinase inhibition assay; format: biochemical; details: for inhibition at 1 µM: single concentration 1.0 μM, read-out: percent inhibition
Experimental: as §1, §2

[8] = target: PDGFRA (PDGFR alpha) (Homo sapiens, UniProt P16234); assay: Tyrosine kinase inhibition assay; format: biochemical; details: for inhibition at 1 µM: single concentration 1.0 μM, read-out: percent inhibition
Experimental: as §1, §2

[9] = target: LCK (Homo sapiens, UniProt P06239); assay: Tyrosine kinase inhibition assay; format: biochemical; details: for inhibition at 1 µM: single concentration 1.0 μM, read-out: percent inhibition
Experimental: as §1, §2

[10] = target: SRC (Homo sapiens, UniProt P12931); assay: Tyrosine kinase inhibition assay; format: biochemical; details: for inhibition at 1 µM: single concentration 1.0 μM, read-out: percent inhibition
Experimental: as §1, §2

[11] = target: FGR (Homo sapiens, UniProt P09769); assay: Tyrosine kinase inhibition assay; format: biochemical; details: for inhibition at 1 µM: single concentration 1.0 μM, read-out: percent inhibition
Experimental: as §1, §2

[12] = target: FLT4 (VEGFR3) (Homo sapiens, UniProt P35916); assay: Tyrosine kinase inhibition assay; format: biochemical; details: for inhibition at 1 µM: single concentration 1.0 μM, read-out: percent inhibition
Experimental: as §1, §2

[13] = target: HCK (Homo sapiens, UniProt P08631); assay: Tyrosine kinase inhibition assay; format: biochemical; details: for inhibition at 1 µM: single concentration 1.0 μM, read-out: percent inhibition
Experimental: as §1, §2

[14] = target: LYN B (Homo sapiens, UniProt P07948); assay: Tyrosine kinase inhibition assay; format: biochemical; details: LYN B; for inhibition at 1 µM: single concentration 1.0 μM, read-out: percent inhibition
Experimental: as §1, §2

[15] = test system: CT-26 cells; assay: In vitro cytotoxicity assay (MTT, 72 h); format: cell-based, murine; details: Mus musculus, CT26, growth inhibition
Experimental: Six different cell lines were used, including human breast cancer cell lines MDA-MB-231 (6×10^3) and MDA-MB-453 (2.4×10^4), human colorectal cell line SW48 (2.4×10^4), human breast epithelial cell line M10 (6×10^3), human cancer cell line A549 (1.4×10^3), and murine colorectal carcinoma tumors CT26 (6×10^3), which were seeded in a 96-well plate. […] After 72 h, MTT assay (Cayman™) was used to determine the cellular viability.

[16] = target: T1, FLT3 (Homo sapiens, UniProt P36888); assay: Tyrosine kinase inhibition assay; format: biochemical; details: for inhibition at 1 µM: single concentration 1.0 μM, read-out: percent inhibition
T1 sequence (P36888 27-993): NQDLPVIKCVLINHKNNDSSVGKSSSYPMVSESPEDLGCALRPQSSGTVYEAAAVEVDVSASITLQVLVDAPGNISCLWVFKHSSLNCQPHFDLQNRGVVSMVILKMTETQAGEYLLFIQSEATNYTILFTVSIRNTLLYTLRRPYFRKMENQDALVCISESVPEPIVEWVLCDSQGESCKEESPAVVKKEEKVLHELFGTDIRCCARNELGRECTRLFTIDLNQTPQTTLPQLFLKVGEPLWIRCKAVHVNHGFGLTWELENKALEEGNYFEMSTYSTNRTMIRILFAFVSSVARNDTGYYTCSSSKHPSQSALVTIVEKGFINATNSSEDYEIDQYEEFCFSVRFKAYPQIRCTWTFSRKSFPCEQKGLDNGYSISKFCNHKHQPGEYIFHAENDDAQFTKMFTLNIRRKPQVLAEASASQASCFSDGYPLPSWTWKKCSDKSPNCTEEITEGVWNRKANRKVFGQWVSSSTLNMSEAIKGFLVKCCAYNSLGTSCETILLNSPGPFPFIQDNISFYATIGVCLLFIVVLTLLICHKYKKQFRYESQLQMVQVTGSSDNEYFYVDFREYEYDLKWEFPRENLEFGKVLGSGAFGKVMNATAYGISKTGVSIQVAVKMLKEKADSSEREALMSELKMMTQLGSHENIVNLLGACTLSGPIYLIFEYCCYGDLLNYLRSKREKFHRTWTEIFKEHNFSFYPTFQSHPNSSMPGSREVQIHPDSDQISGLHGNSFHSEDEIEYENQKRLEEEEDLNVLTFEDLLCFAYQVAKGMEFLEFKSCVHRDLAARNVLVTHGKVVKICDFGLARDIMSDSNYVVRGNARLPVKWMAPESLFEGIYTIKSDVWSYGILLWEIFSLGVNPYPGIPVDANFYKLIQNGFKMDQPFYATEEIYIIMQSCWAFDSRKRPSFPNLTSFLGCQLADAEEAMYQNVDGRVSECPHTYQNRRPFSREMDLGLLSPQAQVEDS
Experimental: as §1
(§3) The inhibition activities of compounds were determined in biochemical assays using single concentration (1.0 μM) measurements. The results were provided as percent inhibition values. […] 99 different tyrosine kinases were used.

[17] = target: TEK (Tie2) (Homo sapiens, UniProt Q02763); assay: Tyrosine kinase inhibition assay; format: biochemical; details: for inhibition at 1 µM: single concentration 1.0 μM, read-out: percent inhibition
Experimental: as §1, §3

Sequence of TEK (Tie2) (Q02763 23-1124): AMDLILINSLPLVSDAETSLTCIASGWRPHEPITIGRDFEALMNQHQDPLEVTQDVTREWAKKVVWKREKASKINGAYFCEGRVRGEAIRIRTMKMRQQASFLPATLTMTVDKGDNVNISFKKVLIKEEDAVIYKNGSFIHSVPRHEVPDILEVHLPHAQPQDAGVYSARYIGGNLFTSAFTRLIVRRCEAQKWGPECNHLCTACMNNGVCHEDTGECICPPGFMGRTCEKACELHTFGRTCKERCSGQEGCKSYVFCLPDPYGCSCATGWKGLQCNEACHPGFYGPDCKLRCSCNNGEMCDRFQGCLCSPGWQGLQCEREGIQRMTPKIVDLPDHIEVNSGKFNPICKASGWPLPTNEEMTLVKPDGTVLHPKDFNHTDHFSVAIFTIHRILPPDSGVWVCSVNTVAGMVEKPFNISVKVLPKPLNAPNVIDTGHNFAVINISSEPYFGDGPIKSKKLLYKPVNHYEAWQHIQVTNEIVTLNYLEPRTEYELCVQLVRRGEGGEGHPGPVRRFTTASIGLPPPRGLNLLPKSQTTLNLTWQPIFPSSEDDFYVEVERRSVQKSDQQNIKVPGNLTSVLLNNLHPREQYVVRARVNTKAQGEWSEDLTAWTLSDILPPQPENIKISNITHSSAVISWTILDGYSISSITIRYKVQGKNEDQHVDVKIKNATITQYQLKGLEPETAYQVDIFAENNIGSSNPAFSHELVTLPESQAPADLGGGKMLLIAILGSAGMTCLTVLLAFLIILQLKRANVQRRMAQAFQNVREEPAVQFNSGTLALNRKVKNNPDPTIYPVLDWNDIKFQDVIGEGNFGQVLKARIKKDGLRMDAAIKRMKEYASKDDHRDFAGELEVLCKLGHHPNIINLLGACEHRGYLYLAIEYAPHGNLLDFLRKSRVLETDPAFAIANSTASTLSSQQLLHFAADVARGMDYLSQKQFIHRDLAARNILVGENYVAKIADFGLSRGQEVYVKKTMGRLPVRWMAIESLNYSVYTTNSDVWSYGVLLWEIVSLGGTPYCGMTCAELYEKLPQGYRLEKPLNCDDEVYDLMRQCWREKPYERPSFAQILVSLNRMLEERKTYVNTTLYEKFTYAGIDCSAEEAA
Sequence of EPHA2 (P29317 24-976): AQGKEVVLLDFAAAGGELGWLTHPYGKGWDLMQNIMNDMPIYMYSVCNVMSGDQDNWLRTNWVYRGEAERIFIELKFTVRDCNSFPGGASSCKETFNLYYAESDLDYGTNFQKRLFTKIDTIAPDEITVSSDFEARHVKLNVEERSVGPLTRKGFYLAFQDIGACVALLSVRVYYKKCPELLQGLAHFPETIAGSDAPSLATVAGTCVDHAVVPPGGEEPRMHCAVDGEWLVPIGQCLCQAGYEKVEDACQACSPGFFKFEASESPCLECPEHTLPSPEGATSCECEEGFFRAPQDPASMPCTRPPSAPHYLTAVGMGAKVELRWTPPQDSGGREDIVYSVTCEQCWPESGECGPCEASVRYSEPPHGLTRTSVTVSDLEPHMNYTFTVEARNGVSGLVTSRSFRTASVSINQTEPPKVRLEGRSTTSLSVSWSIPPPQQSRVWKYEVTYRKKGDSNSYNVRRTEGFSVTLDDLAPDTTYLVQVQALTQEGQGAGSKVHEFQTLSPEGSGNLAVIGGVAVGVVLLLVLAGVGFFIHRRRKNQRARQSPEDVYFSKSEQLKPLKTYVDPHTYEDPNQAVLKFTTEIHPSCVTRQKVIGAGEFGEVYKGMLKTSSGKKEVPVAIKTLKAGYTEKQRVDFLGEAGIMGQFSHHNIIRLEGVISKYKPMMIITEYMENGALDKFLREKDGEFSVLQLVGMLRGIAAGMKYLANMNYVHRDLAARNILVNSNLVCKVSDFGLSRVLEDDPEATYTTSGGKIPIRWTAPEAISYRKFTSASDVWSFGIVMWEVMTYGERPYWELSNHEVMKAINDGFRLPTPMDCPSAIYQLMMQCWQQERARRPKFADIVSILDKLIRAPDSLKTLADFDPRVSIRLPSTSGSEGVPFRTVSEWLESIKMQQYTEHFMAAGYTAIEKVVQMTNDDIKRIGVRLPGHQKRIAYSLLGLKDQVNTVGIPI
Sequence of LCK (P06239 whole entry): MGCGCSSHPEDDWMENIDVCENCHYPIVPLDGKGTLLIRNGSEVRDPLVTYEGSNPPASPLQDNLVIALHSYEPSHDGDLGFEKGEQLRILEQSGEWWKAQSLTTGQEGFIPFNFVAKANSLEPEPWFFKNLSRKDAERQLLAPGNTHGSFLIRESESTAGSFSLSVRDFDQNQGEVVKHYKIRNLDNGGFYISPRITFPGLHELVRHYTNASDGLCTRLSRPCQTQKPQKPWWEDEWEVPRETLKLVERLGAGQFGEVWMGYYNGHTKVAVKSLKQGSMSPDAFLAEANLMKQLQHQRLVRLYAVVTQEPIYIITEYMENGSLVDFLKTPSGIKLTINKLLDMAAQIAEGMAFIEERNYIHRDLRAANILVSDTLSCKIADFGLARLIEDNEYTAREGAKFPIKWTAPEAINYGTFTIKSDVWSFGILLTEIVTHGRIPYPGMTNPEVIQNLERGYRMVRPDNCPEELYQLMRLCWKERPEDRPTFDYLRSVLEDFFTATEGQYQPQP
Sequence of FER (P16591 whole entry): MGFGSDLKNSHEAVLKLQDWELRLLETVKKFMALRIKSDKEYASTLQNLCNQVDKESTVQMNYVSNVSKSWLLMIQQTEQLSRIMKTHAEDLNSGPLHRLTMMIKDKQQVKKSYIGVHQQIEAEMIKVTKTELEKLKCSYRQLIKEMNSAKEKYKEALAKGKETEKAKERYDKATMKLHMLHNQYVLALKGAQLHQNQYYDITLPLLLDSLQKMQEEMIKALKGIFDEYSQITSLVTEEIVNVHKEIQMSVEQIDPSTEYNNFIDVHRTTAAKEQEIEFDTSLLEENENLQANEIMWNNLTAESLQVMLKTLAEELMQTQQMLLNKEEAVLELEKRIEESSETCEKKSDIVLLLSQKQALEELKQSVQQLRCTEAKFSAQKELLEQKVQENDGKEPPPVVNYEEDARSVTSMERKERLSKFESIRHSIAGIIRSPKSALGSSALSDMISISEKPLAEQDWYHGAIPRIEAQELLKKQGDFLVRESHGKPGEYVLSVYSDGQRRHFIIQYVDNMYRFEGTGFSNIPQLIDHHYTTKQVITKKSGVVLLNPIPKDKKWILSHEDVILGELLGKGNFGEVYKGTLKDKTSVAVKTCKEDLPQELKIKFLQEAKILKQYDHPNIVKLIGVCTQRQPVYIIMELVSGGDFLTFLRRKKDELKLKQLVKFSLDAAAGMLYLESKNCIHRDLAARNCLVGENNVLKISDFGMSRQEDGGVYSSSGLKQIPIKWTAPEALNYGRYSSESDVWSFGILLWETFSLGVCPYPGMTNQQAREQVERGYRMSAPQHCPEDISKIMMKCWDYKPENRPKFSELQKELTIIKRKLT
Sequence of FGR (P09769 whole entry): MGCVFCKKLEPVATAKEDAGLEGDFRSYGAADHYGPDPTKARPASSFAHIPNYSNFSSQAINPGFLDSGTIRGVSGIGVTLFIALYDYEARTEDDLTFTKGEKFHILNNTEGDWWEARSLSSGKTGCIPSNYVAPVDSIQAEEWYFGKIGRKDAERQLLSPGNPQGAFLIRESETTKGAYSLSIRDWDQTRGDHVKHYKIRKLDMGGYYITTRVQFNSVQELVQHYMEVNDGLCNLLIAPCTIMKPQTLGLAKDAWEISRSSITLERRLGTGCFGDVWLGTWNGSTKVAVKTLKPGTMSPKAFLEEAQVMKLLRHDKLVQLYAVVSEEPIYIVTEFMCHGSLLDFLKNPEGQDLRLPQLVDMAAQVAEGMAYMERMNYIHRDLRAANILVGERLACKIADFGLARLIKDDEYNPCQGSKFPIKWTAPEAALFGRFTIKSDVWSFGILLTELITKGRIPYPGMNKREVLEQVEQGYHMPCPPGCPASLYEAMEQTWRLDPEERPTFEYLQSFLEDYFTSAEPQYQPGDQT
Sequence of LYN B (P07948 1-491 isoform P07948-2): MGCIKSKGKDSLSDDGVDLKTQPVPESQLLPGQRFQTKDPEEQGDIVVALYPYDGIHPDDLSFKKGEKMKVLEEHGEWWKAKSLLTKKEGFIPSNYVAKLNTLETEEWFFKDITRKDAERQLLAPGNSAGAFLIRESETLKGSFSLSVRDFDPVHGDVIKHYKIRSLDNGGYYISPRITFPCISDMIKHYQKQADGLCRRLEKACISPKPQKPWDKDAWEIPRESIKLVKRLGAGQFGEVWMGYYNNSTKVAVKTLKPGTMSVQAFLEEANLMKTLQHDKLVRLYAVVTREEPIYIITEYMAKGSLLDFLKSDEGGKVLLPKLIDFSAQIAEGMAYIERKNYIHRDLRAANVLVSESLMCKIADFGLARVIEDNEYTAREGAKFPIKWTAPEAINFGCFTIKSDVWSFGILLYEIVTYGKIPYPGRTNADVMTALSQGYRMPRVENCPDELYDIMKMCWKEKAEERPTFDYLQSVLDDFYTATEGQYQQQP
Sequence of SRC (P12931 whole entry): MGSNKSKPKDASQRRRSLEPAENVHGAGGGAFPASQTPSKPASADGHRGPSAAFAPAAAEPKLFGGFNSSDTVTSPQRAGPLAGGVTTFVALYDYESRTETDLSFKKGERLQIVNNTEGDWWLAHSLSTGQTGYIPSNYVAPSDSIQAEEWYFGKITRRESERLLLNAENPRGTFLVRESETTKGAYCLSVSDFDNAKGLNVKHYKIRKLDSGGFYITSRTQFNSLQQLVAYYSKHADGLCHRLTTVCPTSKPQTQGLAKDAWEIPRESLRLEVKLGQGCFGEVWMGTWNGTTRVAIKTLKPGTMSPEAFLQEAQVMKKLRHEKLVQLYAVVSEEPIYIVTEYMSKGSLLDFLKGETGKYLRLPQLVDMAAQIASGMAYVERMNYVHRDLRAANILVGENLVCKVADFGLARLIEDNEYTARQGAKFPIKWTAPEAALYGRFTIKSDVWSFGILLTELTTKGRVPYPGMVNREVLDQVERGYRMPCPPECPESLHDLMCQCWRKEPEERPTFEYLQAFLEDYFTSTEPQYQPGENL

| SMILES | inhibition at 1 µM [1] [%] | inhibition at 1 µM [2] [%] | inhibition at 1 µM [3] [%] | inhibition at 1 µM [4] [%] | inhibition at 1 µM [5] [%] | inhibition at 1 µM [6] [%] | inhibition at 1 µM [7] [%] | inhibition at 1 µM [8] [%] | inhibition at 1 µM [9] [%] | inhibition at 1 µM [10] [%] | inhibition at 1 µM [11] [%] | inhibition at 1 µM [12] [%] | inhibition at 1 µM [13] [%] | inhibition at 1 µM [14] [%] | IC50 [15] [nM] | inhibition at 1 µM [16] [%] | inhibition at 1 µM [17] [%] | other results |
| --- | --- | --- | --- | --- | --- | --- | --- | --- | --- | --- | --- | --- | --- | --- | --- | --- | --- | --- |
| COc1cc2nccc(Oc3ccc(NC(=O)C4(C(=O)Nc5ccc(F)cc5)CC4)cc3F)c2cc1Oc1ccc(N)cc1F [Cbo-23] | 101 | 92 | 102 | 100 | 112 | 97 | 101 | 95 | 99 | 94 | 97 | 99 | 99 | 96 | 5180 ± 1730 | 99 | 95 | IC50 ([1]; read-out: IC50 of compound): 24.7 nM; IC50 ([2]; read-out: IC50 of compound): 53.1 nM; IC50 ([3]; read-out: IC50 of compound): 20.9 nM; IC50 ([4]; read-out: IC50 of compound): 5.87 nM; IC50 ([5]; read-out: IC50 of compound): 14.8 nM; IC50 ([6]; read-out: IC50 of compound): 53.4 nM; IC50 ([7]; read-out: IC50 of compound): 9.01 nM; IC50 ([8]; read-out: IC50 of compound): 36.9 nM; IC50 ([9]; read-out: IC50 of compound): 15.9 nM; IC50 ([10]; read-out: IC50 of compound): 32.1 nM; IC50 ([11]; read-out: IC50 of compound): 25.3 nM; IC50 ([12]; read-out: IC50 of compound): 20.8 nM; IC50 ([13]; read-out: IC50 of compound): 21.4 nM; IC50 ([14]; read-out: IC50 of compound): 18.8 nM; IC50 ([16]; read-out: IC50 of compound): 24.8 nM; IC50 ([17]; read-out: IC50 of compound): 63.1 nM |
| COc1cc2nccc(Oc3ccc(NC(=O)C4(NC(=O)c5ccc(F)cc5)CC4)cc3F)c2cc1Oc1ccc(N)cc1F [Cbo-10] | 97 | 81 | 56 | 95 | 73 | 93 | 102 | 84 | 96 | 86 | 92 | 92 | 72 | 86 | 5010 ± 160 | 70 | 85 |  |
| COc1cc2nccc(Oc3ccc(NC(=O)C4(NC(=O)c5ccc(F)cc5)CC4)cc3F)c2cc1OC [Cbo-02, N-(1-((4-((6,7-diMethoxyquinolin-4-yl)oxy)-3-fluorophenyl)carbamoyl)cyclopropyl)-4-fluorobenzamide] | 88 | 71 | 33 | 56 | 23 | 80 | 98 | 48 | 85 | 42 | 74 | 79 | 62 | 81 | 8200 ± 600 | 56 | 77 |  |
